Reference: patent publication US6136992A, “2-alkoxy estradiols and derivatives thereof” (The United States of America as represented by the …, priority 1998, dated 2000)
Read-outs that look alike come from different tables or passages of the source.

Tests used:
[1] = tested on: HOP-62 non-small-cell lung cancer cells; test: NCI in vitro anticancer screen, HOP-62 non-small-cell lung cancer; assay type: cell-based; conditions: Homo sapiens
Source text: (§1) The effects of the analogs on cancer cell growth was investigated in the National Cancer Institute (NCI) Developmental Therapeutics Program's in vitro panel of approximately 55 cell lines (Grever et al., Seminars in Oncology 19:622 (1992), Alley et al., Cancer Research 48:589 (1988) and Montes et al., J. National Cancer Institute 83:757 (1991)). Representative results are listed in Table 1 for HOP-62 non-small-cell lung cancer cells, HCT-116 colon cancer cells, SF-539 central nervous system (CNS) cancer cells, UACC-62 melanoma cells, OVCAR ovarian cancer cells, SN12-C renal cancer cells, DU-145 prostate cancer cells, and MDA-MB-435 breast cancer cells.
(§2) ^a The cytotoxicity GI50 values are the concentrations

[2] = tested on: HCT-116 colon cancer cells; test: NCI in vitro anticancer screen, HCT-116 colon cancer; assay type: cell-based; conditions: Homo sapiens
Source text: as §1, §2

[3] = tested on: OVCAR ovarian cancer cells; test: NCI in vitro anticancer screen, OVCAR ovarian cancer; assay type: cell-based; conditions: Homo sapiens, read-out: cytotoxicity GI50, Ovarian OVCAR
Source text: as §1, §2

[4] = tested on: DU-145 prostate cancer cells; test: NCI in vitro anticancer screen, DU-145 prostate cancer; assay type: cell-based; conditions: Homo sapiens
Source text: as §1, §2

[5] = tested on: MDA-MB-435 breast cancer cells; test: NCI in vitro anticancer screen, MDA-MB-435 breast cancer; assay type: cell-based; conditions: Homo sapiens
Source text: The effects of the analogs on cancer cell growth was investigated in the National Cancer Institute (NCI) Developmental Therapeutics Program's in vitro panel of approximately 55 cell lines (Grever et al., Seminars in Oncology 19:622 (1992), Alley et al., Cancer Research 48:589 (1988) and Montes et al., J. National Cancer Institute 83:757 (1991)).

[6] = tested on: all human cancer cell lines (approximately 55); test: NCI in vitro anticancer screen, all cell lines; assay type: cell-based
Source text: as §1
^b Mean graph midpoint for all human cancer cell lines (approximately

[7] = target: T1, estrogen receptor (Rattus norvegicus, UniProt P06211); test: Estrogen binding affinity assay (comparative radiometric binding, rat uterine cytosol)
T1 construct: from tissue; host or cells: rat uterine cytosol
T1 sequence (P06211 1-600): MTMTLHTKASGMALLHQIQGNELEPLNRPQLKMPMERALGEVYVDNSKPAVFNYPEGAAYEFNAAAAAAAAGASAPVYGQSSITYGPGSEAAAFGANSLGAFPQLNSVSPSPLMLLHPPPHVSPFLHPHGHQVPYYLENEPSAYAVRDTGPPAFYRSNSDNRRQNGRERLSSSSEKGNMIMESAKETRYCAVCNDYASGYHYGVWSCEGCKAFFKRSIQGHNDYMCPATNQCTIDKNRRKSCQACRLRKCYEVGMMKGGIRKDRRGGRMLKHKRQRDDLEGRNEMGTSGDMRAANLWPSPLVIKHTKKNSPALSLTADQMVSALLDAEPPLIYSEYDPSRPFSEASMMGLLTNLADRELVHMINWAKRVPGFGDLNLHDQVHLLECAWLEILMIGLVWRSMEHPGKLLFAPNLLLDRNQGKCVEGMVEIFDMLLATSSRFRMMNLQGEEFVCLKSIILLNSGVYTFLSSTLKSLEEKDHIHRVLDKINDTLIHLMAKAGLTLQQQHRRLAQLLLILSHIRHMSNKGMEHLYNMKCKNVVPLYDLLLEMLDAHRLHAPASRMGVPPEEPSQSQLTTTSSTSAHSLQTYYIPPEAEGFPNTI
Description: The assay of (11), (12) and (16) were conducted at 0° C. for 20 hours, while those for (1) and (2) were performed at 0° C. for 18 hours.

[8] = tested on: CCRF-CEM; test: NCI screen, leukemia; assay type: cell-based; conditions: Homo sapiens, read-out: Log10 GI50, CCRF-CEM (converted)
[9] = tested on: NCIH-522; test: NCI screen, non-small cell lung cancer; assay type: cell-based; conditions: Homo sapiens, NCI-H522, read-out: Log10 GI50, NCIH-522 (converted)
[10] = tested on: SNB-75; test: NCI screen, CNS cancer; assay type: cell-based; conditions: Homo sapiens, read-out: Log10 GI50, SNB-75 (converted)
[11] = tested on: LOX IMVI; test: NCI screen, melanoma; assay type: cell-based; conditions: Homo sapiens, read-out: Log10 GI50, LOX IMVI (converted)
[12] = tested on: OVCAR-3; test: NCI screen, ovarian cancer; assay type: cell-based; conditions: Homo sapiens, read-out: Log10 GI50, OVCAR-3 (converted)
[13] = tested on: ACHN; test: NCI screen, renal cancer; assay type: cell-based; conditions: Homo sapiens, read-out: Log10 GI50, ACHN (converted)
[14] = tested on: RXF 393; test: NCI screen, renal cancer; assay type: cell-based; conditions: Homo sapiens, read-out: Log10 GI50, RXF 393 (converted)
[15] = tested on: MCF7; test: NCI screen, breast cancer; assay type: cell-based; conditions: Homo sapiens, read-out: Log10 GI50, MCF7 (converted)
[16] = tested on: BT-549; test: NCI screen, breast cancer; assay type: cell-based; conditions: Homo sapiens, read-out: Log10 GI50, BT-549 (converted)

## C[C@]12CC[C@@H]3c4cc(OCC(F)(F)F)c(O)cc4C(=NO)C[C@H]3[C@@H]1CC[C@@H]2O [Compound 12, 2-(2',2', 2'-Trifluoroethoxy)-6-Hydroximino-Estra-1,3,5(10)-Triene-3,17β-Diol]
[1]; HOP-62, read-out: cytotoxicity GI50, Lung HOP-62
  GI50: < 10 nM
[1]; HOP-62, Non-Small Cell Lung Cancer, read-out: Log10 GI50, HOP-62 (converted)
  GI50: < 10 nM
[2]; HCT-116, read-out: cytotoxicity GI50, Colon HCT-116
  GI50: < 10 nM
[2]; HCT-116, Colon Cancer, read-out: Log10 GI50, HCT-116 (converted)
  GI50: < 10 nM
[3]
  GI50: < 10 nM
[4]; DU-145, read-out: cytotoxicity GI50, Prostate DU-145
  GI50: < 10 nM
[4]; DU-145, Prostate Cancer, read-out: Log10 GI50, DU-145 (converted)
  GI50: < 10 nM
[5]; MDA-MB-435, read-out: cytotoxicity GI50, Breast MDA-MB-435
  GI50: < 10 nM
[5]; MDA-MB-435, Breast Cancer, read-out: Log10 GI50, MDA-MB-435 (converted)
  GI50: < 10 nM
[6]; 10^-8 molar is the lowest concentration normally investigated, read-out: GI50
  GI50: < 10 nM
[6]; approximately 55 cell lines, read-out: MGM (mean graph midpoint for all human cancer cell lines), GI50
  GI50: 10 nM
[6]; average of all cell lines of Table 2, read-out: Log10 GI50, Average (all cell lines) (converted)
  GI50: < 10 nM
[7]
  affinity for the estrogen receptor, in words: very week affinity for the receptor
[8]
  GI50: < 10 nM
[9]
  GI50: < 10 nM
[10]
  GI50: < 10 nM
[11]
  GI50: < 10 nM
[12]
  GI50: < 10 nM
[13]
  GI50: < 10 nM
[14]
  GI50: < 10 nM
[15]
  GI50: < 10 nM
[16]
  GI50: < 10 nM
